Patent US20090149417A1, “Methods and compositions for the treatment of cancer using benzopyrone-type PARP inhibitors” (priority 2007, published 2009)
Where “and” joins values, the source holds several entries; their conditions need not be identical. Identical values can stand only once.

Legend:
[1] = test system: Colo375FG metastatic pancreatic adenocarcinoma cells; assay: TUNEL apoptosis assay (flow cytometry); assay type: cell-based, human; settings: for Dead cells TUNEL (%): Compound IIIc 0 mM
Procedure: Cells are labeled for apoptosis with the “In Situ Cell Death Detection Kit, Fluorescein” (Roche Diagnostics Corporation, Roche Applied Science, Indianapolis, Ind.). Briefly, fixed cells are centrifuged and washed once in phosphate-buffered saline (PBS) containing 1% bovine serum albumin (BSA), then resuspended in 2 ml permeabilization buffer (0.1% Triton X-100 and 0.1% sodium citrate in PBS) for 25 min at room temperature and washed twice in 0.2 ml PBS/1% BSA. The cells are resuspended in 50 μl TUNEL reaction mixture (TdT enzyme and labeling solution) and incubated for 60 min at 37° C. in a humidified dark atmosphere in an incubator. The labeled cells are washed once in PBS/1% BSA, then resuspended in 0.5 ml ice-cold PBS containing 1 μg/ml 4′,6-diamidino-2-phenylindole (DAPI) for at least 30 min. All cell samples are analyzed with a BD LSR II (BD Biosciences, San Jose, Calif.).
The cells are labeled for apoptosis with the “In Situ Cell Death Detection Kit, Fluorescein” (Roche Diagnostics Corporation, Roche Applied Science, Indianapolis, Ind.). Briefly, fixed cells are centrifuged and washed once in phosphate-buffered saline (PBS) containing 1% bovine serum albumin (BSA), then resuspended in 2 ml permeabilization buffer (0.1% Triton X-100 and 0.1% sodium citrate in PBS) for 25 minutes at room temperature and washed twice in 0.2 ml PBS/1% BSA. The cells are resuspended in 50 μl TUNEL reaction mixture (TdT enzyme and labeling solution) and incubated for 60 min at 37° C. in a humidified dark atmosphere in an incubator. The labeled cells are washed once in PBS/1% BSA, then resuspended in 0.5 ml ice-cold PBS containing 1 μg/ml 4,6-diamidino-2-phenylindole (DAPI) for at least 30 min. All cell samples are analyzed with a BD LSR II (BD Biosciences, San Jose, Calif.).

COLO357FG and MiaPaCa-2 = assay: Combination with oxaliplatin, BrdU proliferation, Chou and Talalay's method; assay type: cell-based, human; settings: combination of IIIg with oxaliplatin
Procedure: This example provides the assessment of IIIg in combination with an anti-tumor agent, oxaliplatin, on the proliferation of two human pancreatic tumor cell lines, COLO357FG and MiaPaCa-2, in vitro. Cell proliferation is measured by BrdU incorporation as described in detail hereinabove. The experiments are performed according to Chou and Talalay's method (Chou T C, Talalay P. Quantitative analysis of dose-effect relationships: the combined effects of multiple drugs or enzyme inhibitors. Adv Enzyme Regul 1984, 22: 27-55).

[2] = test system: eight pancreatic cancer cells; assay: BrdU-ELISA proliferation assay, IIIg alone and with oxaliplatin; assay type: cell-based, human
Procedure: The effect of IIIg alone and in combination with oxaliplatin on the proliferation of eight pancreatic cancer cells is determined using a BrdU-ELISA assay.
Assessment of synergy is performed according to the method described by Chou and Talalay.

[3] = test system: human pancreatic tumor cell lines, COLO357FG, MiaPaCa-2, AsPC-1, L3.6pl, and Panc28; assay: Proliferation by BrdU incorporation; assay type: cell-based; settings: single agent
Procedure: (§1) Proliferation of various tumor cell lines including uterine cancer Hela cells, lung carcinoma A549 cells, PARP1+/+A16 and PARP1−/− A12 fibroblasts, and several human pancreatic tumor cell lines, COLO357FG, MiaPaCa-2, AsPC-1, L3.6pl, and Panc28, is measured by BrdU incorporation. In some experiments, tumor cell proliferation is measured after 96 hours. The concentration of IIIg is titrated to show the effect of IIIg on tumor cell growth in vitro.
(§2) BrdU assay is well known in the art. Briefly, cells are cultured in the presence of the respective test substances in an appropriate 96-well MP at 37° C. for a certain period of time (1 to 5 days, depending on the individual assay system). Subsequently, BrdU is added to the cells and the cells are reincubated (usually 2-24 h). During this labeling period, the pyrimidine analogue BrdU is incorporated in place of thymidine into the DNA of proliferating cells. After removing the culture medium the cells are fixed and the DNA is denatured in one step by adding FixDenat (the denaturation of the DNA is necessary to improve the accessibility of the incorporated BrdU for detection by the antibody). The anti-BrdU-POD antibody is added and the antibody binds to the BrdU incorporated in newly synthesized, cellular DNA. The immune complexes are detected by the subsequent substrate reaction via chemiluminescent detection (based on Cell Proliferation ELISA, BrdU Chemiluminescence Protocol from Roche).
(§3) Experiments and analyses are performed according to Shaw G and Prowse DM, “Inhibition of androgen-independent prostate cancer cell growth is enhanced by combination therapy targeting Hedgehog and ErbB signaling” Cancer Cell Int. 2008 Mar. 18; 8:3.

PARP1−/− A12 fibroblasts = assay: Proliferation by BrdU incorporation; assay type: cell-based; settings: PARP-1−/− fibroblasts; single agent
Procedure: as §1, §2, §3

PARP1+/+A16 fibroblasts = assay: Proliferation by BrdU incorporation; assay type: cell-based; settings: wildtype fibroblasts; single agent
Procedure: as §1, §2, §3

L3.6 μl PC cells = assay: Luciferase-expressing pancreatic cancer orthotopic nude mouse model; assay type: in vivo; settings: 100 mg/kg/day 2/week×4 weeks
Procedure: The therapeutic efficacy of IIIg on tumor growth and survival is evaluated in different luciferase-expressing pancreatic cancer orthotopic nude mouse models using an IVIS100 Imaging System, allowing a quantitative real time monitoring of tumor growth.
Mice are monitored daily for signs of toxicity including weight loss, diarrhea, inactivity, and general appearance.

[4] = test system: human tumor cells including pancreatic, breast, uterine, lung, prostate, and ovarian cancer cells; assay: Proliferation of human tumor cells in vitro (summary); assay type: cell-based

O=c1ccc2c(I)c([N+](=O)[O-])ccc2o1 [IIIg, 5-iodo-6-nitro-benzopyrone]
TUNEL (%) ([1]; IIIg 2.5 μM, OxaliPt 0 μM): 3.3% and 2.5%
TUNEL (%) ([1]; combination: IIIg 2.5 μM + OxaliPt 10 μM): 19%
TUNEL (%) ([1]; combination: IIIg 2.5 μM + OxaliPt 20 μM): 42%
TUNEL (%) ([1]; combination: IIIg 12.5 μM + OxaliPt 10 μM): 57.3%
TUNEL (%) ([1]; combination: IIIg 12.5 μM + OxaliPt 20 μM): 85.7%
TUNEL (%) ([1]; combination: IIIg 25 μM + OxaliPt 10 μM): 89.5%
TUNEL (%) ([1]; combination: IIIg 25 μM + OxaliPt 20 μM): 94.2%
Synergy with oxaliplatin on proliferation (COLO357FG and MiaPaCa-2): synergizes with oxaliplatin
IC50 ([2]; Homo sapiens, Pancreatic cancer cell, IIIg alone, range over eight PC cell lines, read-out: IC50 (growth of eight PC cell lines)): 5 to 10 µM
Potentiation of oxaliplatin cytotoxicity ([2]; different pancreatic cancer cell models): potentiates oxaliplatin cytotoxicity
Cell growth [3]: significantly inhibits cell growth
Cell growth (PARP1−/− A12 fibroblasts): not PARP-1−/− fibroblasts
Cell growth (PARP1+/+A16 fibroblasts): selectively inhibits the growth of wildtype
Signs of toxicity (L3.6 μl PC cells): without signs of toxicity
Survival (L3.6 μl PC cells): prolongs survival
Tumor burden (L3.6 μl PC cells): significantly reduces the tumor burden
Proliferation of human tumor cells [4]: inhibits the proliferation

O=C1[O][Pt]2([NH][C@@H]3CCCC[C@H]3[NH]2)[O]C1=O [OxaliPt, oxaliplatin, reference compound]
Dead cells TUNEL (%) ([1]; OxaliPt 10 mM): 21.0%
Dead cells TUNEL (%) ([1]; OxaliPt 20 mM): 48.3%
TUNEL (%) ([1]; IIIg 0 μM, OxaliPt 10 μM): 21%
TUNEL (%) ([1]; IIIg 0 μM, OxaliPt 20 μM): 48.3%
